Values of other authors, collected in patent US20080161587A1, “Crystallization method for purification of calcipotriene” (Teva Pharmaceuticals USA, Inc., priority 2002, published 2008).

C=C1/C(=C\C=C2/CCC[C@]3(C)[C@@H]([C@H](C)/C=C/[C@@H](O)C4CC4)CC[C@@H]23)C[C@@H](O)C[C@@H]1O [calcipotriene, (5Z, 7E, 22E, 24S)-24-cyclopropyl-9,10-secochola-5,7,10(19), 22-tetraene-1α, 3β, 24-triol]
solubility in highly apolar solvents (highly a polar solvents (e.g. hydrocarbons)): essentially insoluble
solubility in alcoholic solvents (methanol, ethanol, and isopropanol (IPA)): highly soluble
solubility of calcipotriene in methyl formate (solvent methyl formate): about 1 g calcipotriene/150 mL of methyl formate
